According to patent publication US20100267561A1, “HERBICIDAL PYRIDAZINONE DERIVATIVES” (priority 2007, published 2010):
Like-named read-outs stand apart in the source and are kept apart here.

What was measured:
Type in all cases: in vivo
[1] = tested on: barnyardgrass (Echinochloa crus-galli); assay: Test A pre-/postemergence plant response; conditions: for pest or weed control at 125 g/ha / pest or weed control at 500 g/ha / pest or weed control at 31 g/ha: Echinochloa crus-galli, 240 h, read-out: Plant response rating, Barnyardgrass; for pest or weed control at 31 g/ha: 31 g ai/ha
In short: (§1)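 Greenhouse pot test: loam–sand soil; pre- and postemergence sprays applied same day; post plants 2–10 cm, 1–2 leaves. Readout ~10 d, visual % injury vs untreated (0 = none, 100 = complete control).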

[2] = tested on: giant foxtail (Setaria faberi); assay: Test A pre-/postemergence plant response; conditions: for pest or weed control at 125 g/ha / pest or weed control at 500 g/ha / pest or weed control at 31 g/ha: Setaria faberi, 240 h, read-out: Plant response rating, Foxtail, Giant; for pest or weed control at 31 g/ha: 31 g ai/ha
In short: as §1

corn (Zea mays) = assay: Test A pre-/postemergence plant response; conditions: for Corn plant response rating (crop injury, 0 = no effect, 100 = complete kill) at 125 g/ha / Corn plant response rating (crop injury, 0 = no effect, 100 = complete kill) at 500 g/ha / Corn plant response rating (crop injury, 0 = no effect, 100 = complete kill) at 31 g/ha: Zea mays, 240 h; for Corn plant response rating (crop injury, 0 = no effect, 100 = complete kill) at 31 g/ha: 31 g ai/ha
In short: as §1

[3] = tested on: large crabgrass (Digitaria sanguinalis); assay: Test A pre-/postemergence plant response; conditions: for pest or weed control at 125 g/ha / pest or weed control at 500 g/ha / pest or weed control at 31 g/ha: Digitaria sanguinalis, 240 h, read-out: Plant response rating, Crabgrass, Large; for pest or weed control at 31 g/ha: 31 g ai/ha
In short: as §1

[4] = tested on: velvetleaf (Abutilon theophrasti); assay: Test A pre-/postemergence plant response
In short: as §1

[5] = tested on: morningglory (Ipomoea coccinea); assay: Test A pre-/postemergence plant response
In short: as §1

[6] = tested on: yellow nutsedge (Cyperus esculentus); assay: Test B pre-/postemergence plant response; conditions: Preemergence
In short: (§2)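 Visual scoring from 0 (no effect) to 100 (complete control) against untreated controls was done 13 to 15 days after greenhouse treatment. Chemicals were formulated in a surfactant-containing non-phytotoxic solvent and applied to soil preemergence or to 1- to 4-leaf (2-18 cm) plants postemergence.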

[7] = tested on: wheat (Triticum aestivum); assay: Test B pre-/postemergence plant response; conditions: Preemergence
In short: as §2

wild oat (Avena fatua) = assay: Test B pre-/postemergence plant response; conditions: Preemergence
In short: as §2

[8] = Postemergence, 125 g ai/ha, 0 to 100 scale, 0 no effect, 100 complete control
[9] = Postemergence, 500 g ai/ha, 0 to 100 scale, 0 no effect, 100 complete control
[10] = Preemergence, 125 g ai/ha, 0 to 100 scale (0 no effect, 100 complete control)
[11] = Preemergence, 500 g ai/ha, 0 to 100 scale (0 no effect, 100 complete control)
[12] = 16 g ai/ha, scale 0 to 100 (0 no effect, 100 complete control)
[13] = 31 g ai/ha, 0 to 100 scale, 0 no effect, 100 complete control
[14] = post-emergence, Postemergence, 125 g ai/ha, 0 to 100 scale, 0 no effect, 100 complete control
[15] = post-emergence, Postemergence, 500 g ai/ha, 0 to 100 scale, 0 no effect, 100 complete control
[16] = pre-emergence, Preemergence, 125 g ai/ha, 0 to 100 scale (0 no effect, 100 complete control)
[17] = pre-emergence, Preemergence, 500 g ai/ha, 0 to 100 scale (0 no effect, 100 complete control)
[18] = post-emergence, Postemergence, 0 to 100 scale (0 no effect, 100 complete control)
[19] = pre-emergence, Preemergence, 0 to 100 scale, 0 is no effect, 100 is complete control

## Cc1cc(-c2ccc(C(F)(F)F)cc2)nn1-c1c(O)c(C(C)C)nn(C)c1=O [Compound 27]
[1]; [8]
  Plant response rating, Barnyardgrass: 20
[1]; [9]
  Plant response rating, Barnyardgrass: 90
[1]; [10]
  Plant response rating, Barnyardgrass: 80
[1]; [11]
  Plant response rating, Barnyardgrass: 100
[2]; [8]
  Plant response rating, Foxtail, Giant: 50
[2]; [9]
  Plant response rating, Foxtail, Giant: 90
[2]; [10]
  Plant response rating, Foxtail, Giant: 80
[2]; [11]
  Plant response rating, Foxtail, Giant: 90
Corn (Zea mays); [8]
  Plant response rating, Corn: 50
Corn (Zea mays); [9]
  Plant response rating, Corn: 80
Corn (Zea mays); [10]
  Plant response rating, Corn: 20
Corn (Zea mays); [11]
  Plant response rating, Corn: 80
[3]; [8]
  Plant response rating, Crabgrass, Large: 60
[3]; [9]
  Plant response rating, Crabgrass, Large: 80
[3]; [10]
  Plant response rating, Crabgrass, Large: 80
[3]; [11]
  Plant response rating, Crabgrass, Large: 100
[4]; [8]
  Plant response rating, Velvetleaf: 0
[4]; [9]
  Plant response rating, Velvetleaf: 0
[4]; [10]
  Plant response rating, Velvetleaf: 0
[4]; [11]
  Plant response rating, Velvetleaf: 0
[5]; [8]
  Plant response rating, Morningglory: 0
[5]; [9]
  Plant response rating, Morningglory: 0
[5]; [10]
  Plant response rating, Morningglory: 0
[5]; [11]
  Plant response rating, Morningglory: 0
[6]; [12]
  Plant response rating, Nutsedge, Yellow: 0
[6]; [13]
  Plant response rating, Nutsedge, Yellow: 0
[6]; 62 g ai/ha, scale 0 to 100
  Plant response rating, Nutsedge, Yellow: 0
[6]; 8 g ai/ha, scale 0 to 100
  Nutsedge, Yellow plant response rating: 0
[7]; [12]
  Plant response rating, Wheat: 0
[7]; [13]
  Plant response rating, Wheat: 15
[7]; 62 g ai/ha, scale 0 to 100
  Plant response rating, Wheat: 45
[7]; 8 g ai/ha, scale 0 to 100
  Wheat plant response rating: 0
Wild oat (Avena fatua); [12]
  Plant response rating, Oat, Wild: 0
Wild oat (Avena fatua); [13]
  Plant response rating, Oat, Wild: 50
Wild oat (Avena fatua); 62 g ai/ha, scale 0 to 100
  Plant response rating, Oat, Wild: 50
Wild oat (Avena fatua); 8 g ai/ha, scale 0 to 100
  Oat, Wild plant response rating: 0

## Cc1cc(-c2ccc(Br)cc2)nn1-c1c(O)cnn(C2CCCCO2)c1=O (stereo not drawn) [Compound 77, 4-[3-(4-bromophenyl)-5-methyl-1H-pyrazol-1-yl]-5-hydroxy-2-(tetrahydro-2H-pyran-2-yl)-3(2H)-pyridazinone]
[1]; [14]
  pest or weed control at 125 g/ha: 50%
[1]; [15]
  pest or weed control at 500 g/ha: 100%
[1]; [16]
  pest or weed control at 125 g/ha: 0%
[1]; [17]
  pest or weed control at 500 g/ha: 100%
[2]; [14]
  pest or weed control at 125 g/ha: 80%
[2]; [15]
  pest or weed control at 500 g/ha: 100%
[2]; [16]
  pest or weed control at 125 g/ha: 30%
[2]; [17]
  pest or weed control at 500 g/ha: 100%
Corn (Zea mays); [14]
  Corn plant response rating (crop injury, 0 = no effect, 100 = complete kill) at 125 g/ha: 80%
Corn (Zea mays); [15]
  Corn plant response rating (crop injury, 0 = no effect, 100 = complete kill) at 500 g/ha: 100%
Corn (Zea mays); [16]
  Corn plant response rating (crop injury, 0 = no effect, 100 = complete kill) at 125 g/ha: 30%
Corn (Zea mays); [17]
  Corn plant response rating (crop injury, 0 = no effect, 100 = complete kill) at 500 g/ha: 80%
[3]; [14]
  pest or weed control at 125 g/ha: 70%
[3]; [15]
  pest or weed control at 500 g/ha: 100%
[3]; [16]
  pest or weed control at 125 g/ha: 10%
[3]; [17]
  pest or weed control at 500 g/ha: 100%

## Cc1cn(-c2ccc(C(F)(F)F)cc2)nc1-c1c(O)cnn(C)c1=O [Compound 85, 5-hydroxy-2-methyl-4-[4-methyl-1-[4-(trifluoromethyl)phenyl]-1H-pyrazol-3-yl]-3(2H)-pyridazinone]
[1]; [18]
  pest or weed control at 31 g/ha: 0%
[1]; [14]
  pest or weed control at 125 g/ha: 30%
[1]; [19]
  pest or weed control at 31 g/ha: 0%
[1]; [16]
  pest or weed control at 125 g/ha: 40%
[2]; [18]
  pest or weed control at 31 g/ha: 0%
[2]; [14]
  pest or weed control at 125 g/ha: 60%
[2]; [19]
  pest or weed control at 31 g/ha: 0%
[2]; [16]
  pest or weed control at 125 g/ha: 100%
Corn (Zea mays); [18]
  Corn plant response rating (crop injury, 0 = no effect, 100 = complete kill) at 31 g/ha: 0%
Corn (Zea mays); [14]
  Corn plant response rating (crop injury, 0 = no effect, 100 = complete kill) at 125 g/ha: 0%
Corn (Zea mays); [19]
  Corn plant response rating (crop injury, 0 = no effect, 100 = complete kill) at 31 g/ha: 0%
Corn (Zea mays); [16]
  Corn plant response rating (crop injury, 0 = no effect, 100 = complete kill) at 125 g/ha: 0%
[3]; [18]
  pest or weed control at 31 g/ha: 0%
[3]; [14]
  pest or weed control at 125 g/ha: 40%
[3]; [19]
  pest or weed control at 31 g/ha: 10%
[3]; [16]
  pest or weed control at 125 g/ha: 70%

## Cn1ncc(O)c(-c2nn(-c3ccc(C(F)(F)F)cc3)cc2Br)c1=O [Compound 87, 4-[4-bromo-1-[4-(trifluoromethyl)phenyl]-1H-pyrazol-3-yl]-5-hydroxy-2-methyl-3(2H)-pyridazinone]
[1]; [18]
  pest or weed control at 31 g/ha: 0%
[1]; [14]
  pest or weed control at 125 g/ha: 90%
[1]; [19]
  pest or weed control at 31 g/ha: 0%
[1]; [16]
  pest or weed control at 125 g/ha: 50%
[2]; [18]
  pest or weed control at 31 g/ha: 20%
[2]; [14]
  pest or weed control at 125 g/ha: 80%
[2]; [19]
  pest or weed control at 31 g/ha: 20%
[2]; [16]
  pest or weed control at 125 g/ha: 90%
Corn (Zea mays); [18]
  Corn plant response rating (crop injury, 0 = no effect, 100 = complete kill) at 31 g/ha: 0%
Corn (Zea mays); [14]
  Corn plant response rating (crop injury, 0 = no effect, 100 = complete kill) at 125 g/ha: 40%
Corn (Zea mays); [19]
  Corn plant response rating (crop injury, 0 = no effect, 100 = complete kill) at 31 g/ha: 0%
Corn (Zea mays); [16]
  Corn plant response rating (crop injury, 0 = no effect, 100 = complete kill) at 125 g/ha: 20%
[3]; [18]
  pest or weed control at 31 g/ha: 10%
[3]; [14]
  pest or weed control at 125 g/ha: 80%
[3]; [19]
  pest or weed control at 31 g/ha: 20%
[3]; [16]
  pest or weed control at 125 g/ha: 70%
